Reference: ChEMBL document CHEMBL3632500, “Developing structure-activity relationships from an HTS hit for inhibition of the Cks1-Skp2 protein-protein interaction” (Bioorg Med Chem Lett, 2015)
Calls of active or inactive are those of the source. The calls are words filed in the database; no cut-off is given here.

What was measured:
[1] = biological target: T1, Cyclin-dependent kinases regulatory subunit 1/S-phase kinase-associated protein 2 (Homo sapiens, UniProt P61024+Q13309); test: Inhibition of Cks1-Skp2 (unknown origin) interaction assessed as increase in p27-GFP level by western blot analysis; assay type: protein assay
Target sequence in this assay (P61024 2-79 limits assumed): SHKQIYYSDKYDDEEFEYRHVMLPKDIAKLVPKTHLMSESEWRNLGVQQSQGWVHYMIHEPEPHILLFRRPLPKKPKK
Target sequence in this assay (Q13309 whole entry partner): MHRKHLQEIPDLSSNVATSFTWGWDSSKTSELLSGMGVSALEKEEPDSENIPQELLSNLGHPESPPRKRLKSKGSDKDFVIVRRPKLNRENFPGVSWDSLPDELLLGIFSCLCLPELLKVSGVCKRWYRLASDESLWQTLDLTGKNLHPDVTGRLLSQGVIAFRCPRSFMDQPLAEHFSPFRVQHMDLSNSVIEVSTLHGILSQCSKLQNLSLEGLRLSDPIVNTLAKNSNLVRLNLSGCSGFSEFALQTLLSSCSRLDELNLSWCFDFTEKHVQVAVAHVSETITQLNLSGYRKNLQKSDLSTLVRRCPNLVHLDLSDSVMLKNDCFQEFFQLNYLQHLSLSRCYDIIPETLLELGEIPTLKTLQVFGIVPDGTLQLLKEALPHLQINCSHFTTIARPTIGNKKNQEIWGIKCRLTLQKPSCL

[2] = tested on: NCI-H1299; test: Antiproliferative activity against human H1299 cells after 2 days; assay type: functional, cell-based
[3] = tested on: A549; test: Antiproliferative activity against human A549 cells after 2 days; assay type: functional, cell-based
[4] = biological target: T1, Cyclin-dependent kinases regulatory subunit 1/S-phase kinase-associated protein 2; test: Inhibition of Cks1-Skp2 (unknown origin) interaction assessed as increase in p27-GFP level by ELISA; assay type: protein assay
Target sequence in this assay (P61024 2-79 limits assumed): as the sequence (P61024 2-79 limits assumed) above
Target sequence in this assay (Q13309 whole entry partner): as the sequence (Q13309 whole entry partner) above

[5] = Antiproliferative activity against human HT1080 cells after 6 days; assay type: functional; conditions: HT-1080, 144 h
[6] = tested on: A549; test: Antiproliferative activity against human A549 cells after 6 days; assay type: functional; conditions: A549, 144 h
[7] = biological target: T1, Cyclin-dependent kinases regulatory subunit 1/S-phase kinase-associated protein 2; test: Inhibition of Cks1-Skp2 (unknown origin) interaction after 30 mins by ELISA; assay type: protein assay
[8] = Homo sapiens, NCI-H1299, 48 h, read-out: IC50
[9] = Homo sapiens, A549, 48 h, read-out: IC50

SMILES	Activity [1]	IC50 [2, 8] [µM]	IC50 [3, 9] [µM]	Activity [4]	GI50 [6] [µM]	GI50 [5] [µM]	also measured
Cc1ccc(S(=O)(=O)Nc2cc(Oc3cc(F)cc(F)c3)cc3cccnc23)cc1	Active	2.46	2.94	Active	4.11	0.08	
Cc1ccc(S(=O)(=O)Nc2ccc(Br)c3ccccc23)cc1					48.5	27.4	IC50 ([2]; nci-h1299): Not Active; IC50 ([3]; a549): Not Active; inhibition [7]: inactive
Cc1ccc(S(=O)(=O)N(C)c2cccc3cccnc23)cc1							inhibition [7]: inactive
COc1ccc(S(=O)(=O)Nc2ccc(-c3ccccc3)c3cccnc23)cc1	Active			Active			
COc1ccc(S(=O)(=O)Nc2ccc(-c3ccncc3)c3cccnc23)cc1	Active			Active	5.24	1.07	IC50 ([2]; nci-h1299): Not Active; IC50 ([3]; a549): Not Active; IC50 ([7]; read-out: IC50): 2.45 µM
Cc1ccc(S(=O)(=O)Nc2ccc(-c3cc4ccccc4s3)c3cccnc23)cc1	Active			Active	0.39	0.15	IC50 ([2]; nci-h1299): Not Active; IC50 ([3]; a549): Not Active
Cc1ccc(S(=O)(=O)Nc2ccc(-c3ccccc3)c3cccnc23)cc1	Active	8.56	7.22	Active	2.36	1.64	
O=S(=O)(Nc1ccc(-c2ccccc2)c2cccnc12)c1cccc(C(F)(F)F)c1	Active			Active			
Cc1ccc(S(=O)(=O)Nc2ccc(-c3ccccc3)c3ccncc23)cc1							inhibition [7]: inactive
Cc1ccc(NS(=O)(=O)c2ccc(-c3ccccc3)c3cccnc23)cc1							inhibition [7]: inactive
Cc1ccc(S(=O)(=O)Nc2ccc(N3CCOCC3)c3cccnc23)cc1	inactive			inactive			IC50 [7]: Not Active
Cc1ccc(S(=O)(=O)Nc2cccc3cccnc23)cc1	Active	5.35	7.54	Active	2.48	2.46	IC50 ([7]; read-out: IC50): 2.18 µM
COc1ccc(Oc2cc(NS(=O)(=O)c3ccc(C)cc3)c3ncccc3c2)cc1	inactive	11.3	16.9	inactive	4.09	0.74	
Cc1ccc(C(=O)Nc2ccc(Br)c3cccnc23)cc1							inhibition [7]: inactive
Cc1ccc(S(=O)(=O)Nc2ccc(-c3ccco3)c3cccnc23)cc1	Active			Active	26	9.78	IC50 ([2]; nci-h1299): Not Active; IC50 ([3]; a549): Not Active
Cc1ccc(S(=O)(=O)Nc2cc(Oc3cccc(C#N)c3)cc3cccnc23)cc1					6.48	6.83	IC50 ([2]; nci-h1299): Not Active; IC50 ([3]; a549): Not Active
Cc1ccc(S(=O)(=O)Nc2ccc(N3CCN(C)CC3)c3cccnc23)cc1	inactive			inactive			IC50 [7]: Not Active
Cc1ccc(S(=O)(=O)Nc2ccc(Br)c3cccnc23)cc1	Active			Active			
Cc1ccc(S(=O)(=O)Nc2ccc(N3CCC(Cc4ccccc4)CC3)c3cccnc23)cc1	inactive			inactive			IC50 [7]: Not Active

More lines, main results first:

Activity [1]	IC50 [2, 8] [µM]	IC50 [3, 9] [µM]	Activity [4]	GI50 [6] [µM]	SMILES	GI50 [5] [µM]	also measured
Active			Active		CS(=O)(=O)Nc1ccc(-c2ccccc2)c2cccnc12		
Active	1.05	1.49	Active	0.91	O=S(=O)(Nc1ccc(-c2cccnc2)c2cccnc12)c1cccnc1	0.4	
inactive	9.48	11.8	inactive	5.88	O=S(=O)(Nc1ccc(-c2ccncc2)c2cccnc12)c1cccnc1	1.07	
inactive			inactive		CS(=O)(=O)Nc1ccc(-c2ccncc2)c2cccnc12		IC50 [7]: Not Active
inactive			inactive		O=S(=O)(Nc1ccc(-c2ccccc2)c2cccnc12)C1CC1		
Active			Active		O=S(=O)(Nc1ccc(-c2ccccc2)c2cccnc12)c1cccnc1		
inactive			inactive		CS(=O)(=O)Nc1ccc(-c2cccnc2)c2cccnc12		
Active	3.9	5.91	Active		O=S(=O)(Nc1ccc(-c2cccnc2)c2cccnc12)c1cccc(C(F)(F)F)c1		
Active	4.09	4.63	Active	2.36	Cc1ccc(S(=O)(=O)Nc2ccc(-c3ccsc3)c3cccnc23)cc1	0.64	
Active	5.31	7.94	Active	1.24	COc1ccc(S(=O)(=O)Nc2ccc(-c3cccnc3)c3cccnc23)cc1	0.44	IC50 ([7]; read-out: IC50): 0.58 µM
inactive			inactive		O=S(=O)(Nc1ccc(-c2cccnc2)c2cccnc12)C1CC1		
inactive			inactive		O=S(=O)(Nc1ccc(-c2ccncc2)c2cccnc12)C1CC1		
Active	6.95	7.13	Active	6.02	Cc1ccc(S(=O)(=O)Nc2ccc(-c3cccnc3)c3cccnc23)cc1	4.22	
